Laboratory results from US9474755B2, “GLP-1 receptor modulators” (Receptos, Inc., priority 2014, dated 2016).

Each molecule was assayed against T1, GLP-1R (Homo sapiens, UniProt P43220) (assay: EC20 GLP-1(9-36) PAM cAMP Assay: dose response of compound in the presence of fixed concentration of GLP-1(9-36)). Settings: GLP-1R CRE-bla CHO-K1 cells, in presence of fixed concentration of GLP-1(9-36), 30 min at 37° C.
T1 construct: host or cells: CRE-bla CHO-K1
Type: cell-based
Procedure: EC20 GLP-1(9-36) PAM cAMP Assay: Dose Response of Compound in the Presence of Fixed Concentration of GLP-1 (9-36).
GLP-1R CRE-bla CHO-K1 cells cultured in growth medium (DMEM-High glucose, 10% dialyzed FBS, 0.1 mM NEAA, 25 mM Hepes, 100 U/mL penicillin/100 μg/mL streptomycin, 5 μg/mL Blasticidin, 600 μg/mL Hygromycin) were trypsinized and plated in suspension into 384 well white flat bottom plates at 5000 cells/well in 12 μL assay buffer (Hanks Balanced Salt solution, 10 mM Hepes, 0.1% BSA, 10 pH 7.4). A 5× compound dose response curve (12-point) was generated in assay buffer containing 1.5 mM IBMX, 4% DMSO. GLP-1(9-36) was diluted to 4.2 μM in assay buffer containing 1.5 mM IBMX and 4% DMSO. The 5× compound dose response was added (3 μL), followed by 0.5 μL of GLP-1(9-36) and cells were incubated for 30 min at 37° C. Direct detection of cAMP was carried out using DiscoveRx HitHunter cAMP kit according to manufacturer's instructions and luminescence was read using a SpectraMax M5 plate reader. Luminescence was converted to total cAMP using a cAMP standard curve and data was analyzed by non-linear regression to determine the EC50 and Emax.

T1 sequence (P43220 24-463): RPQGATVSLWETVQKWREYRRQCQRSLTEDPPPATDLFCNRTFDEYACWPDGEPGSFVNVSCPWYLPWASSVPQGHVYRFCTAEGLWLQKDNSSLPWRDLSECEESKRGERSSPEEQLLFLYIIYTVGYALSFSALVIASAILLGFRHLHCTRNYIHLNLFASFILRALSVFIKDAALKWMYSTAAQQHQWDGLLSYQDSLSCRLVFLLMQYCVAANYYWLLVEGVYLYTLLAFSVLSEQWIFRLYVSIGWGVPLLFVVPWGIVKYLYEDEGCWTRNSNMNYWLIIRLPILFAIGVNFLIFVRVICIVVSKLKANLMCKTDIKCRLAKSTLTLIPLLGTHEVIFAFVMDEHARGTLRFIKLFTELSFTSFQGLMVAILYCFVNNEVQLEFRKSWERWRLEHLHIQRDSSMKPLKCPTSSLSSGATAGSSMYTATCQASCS
T1 sequence (P01275 100-127 partner limits assumed): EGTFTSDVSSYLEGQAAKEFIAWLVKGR

EC50 [nM]	Compound
< 500	CCCC1CCC(C2CC=C(c3cnc(-c4ccc(C[C@H](NC(=O)c5ccc(C(C)(C)C)s5)C(=O)N5CC(C(=O)O)C5)cc4)nc3)CC2)CC1 (mixture of isomers) [Compound 6, 1-((2S)-2-(5-(tert-butyl)thiophene-2-carboxamido)-3-(4-(5-(4′-propyl-[1,1′-bi(cyclohexan)]-3-en-4-yl)pyrimidin-2-yl)phenyl)propanoyl)azetidine-3-carboxylic acid]
< 500	CCCC1CCC(C2CC=C(c3cnc(-c4ccc(C[C@H](NC(=O)c5cnc(C(C)(C)C)nc5)C(=O)N5CC(C(=O)O)C5)cc4)nc3)CC2)CC1 (some centres unmarked) [Compound 15]
< 500	CC1(C)CCC(C2CC=C(c3cnc(-c4ccc(C[C@H](NC(=O)c5ccc(C(C)(C)C)s5)C(=O)N5CC(C(=O)O)C5)cc4)nc3)CC2)CC1 (some centres unmarked) [Compound 90]
500 to 2500	CC[C@H]1CC[C@H](C2CCC(c3cnc(-c4ccc(C[C@H](NC(=O)c5ccc(C(C)(C)C)s5)C(=O)N5CC(C(=O)O)C5)cc4)nc3)CC2)CC1 (some centres unmarked) [Compound 125]
500 to 2500	CC[C@H]1CC[C@H](C2CC=C(c3cnc(-c4ccc(C[C@H](NC(=O)c5ccccc5)C(=O)N5CC(C(=O)O)C5)cc4)nc3)CC2)CC1 (some centres unmarked) [Compound 99]
500 to 2500	C[C@@H](NC(=O)[C@H](Cc1ccc(-c2ncc(C3=CCC(C)(C)CC3)cn2)cc1)NC(=O)c1ccc(C(C)(C)C)s1)C(=O)O [Compound 57]
< 500	C[C@@H](NC(=O)[C@H](Cc1ccc(-c2ncc(C3=CCC([C@H]4CC[C@H](C)CC4)CC3)cn2)cc1)NC(=O)c1ccc(C(C)(C)C)s1)C(=O)O (some centres unmarked) [Compound 112]
5000 to 10000	CCCCCC1CCC(C2CC=C(c3cnc(-c4ccc(C[C@H](NC(=O)c5ccc(C(C)(C)C)s5)C(=O)N[C@H](C)C(=O)O)cc4)nc3)CC2)CC1 (some centres unmarked) [Compound 2]
< 500	CC[C@H]1CC[C@H](C2CC=C(c3cnc(-c4ccc(C[C@H](NC(=O)c5ccc(C(F)(F)F)cc5)C(=O)N5CC(C(=O)O)C5)cc4)nc3)CC2)CC1 (some centres unmarked) [Compound 100]
< 500	CCCC1CCC(C2CC=C(c3cnc(-c4ccc(C[C@H](NC(=O)c5ccc(C(C)(C)C)s5)C(=O)S(C)(=O)=O)cc4)nc3)CC2)CC1 (some centres unmarked) [Compound 79]
500 to 2500	CCCC1CCC(C2CC=C(c3cnc(-c4ccc(C[C@H](NC(=O)c5ccc(C(C)(C)C)s5)C(=O)N[C@H](Cc5cnc[nH]5)C(=O)O)cc4)nc3)CC2)CC1 (some centres unmarked) [Compound 78]
< 500	CC[C@H]1CC[C@H](C2CC=C(c3cnc(-c4ccc(C[C@H](NC(=O)c5ccc(C(C)C)s5)C(=O)N5CC(C(=O)O)C5)cc4)nc3)CC2)CC1 (some centres unmarked) [Compound 103]
2500 to 5000	C[C@@H](NC(=O)[C@H](Cc1ccc(-c2ncc(C3=CC4CC[C@]3(C)C4(C)C)cn2)cc1)NC(=O)c1ccc(C(C)(C)C)s1)C(=O)O [Compound 58]
2500 to 5000	CCCC1CCC(C2CCC(c3cnc(-c4ccc(C[C@H](NC(=O)c5ccc(C6(C)CC6)cc5)C(=O)N5CC(C(=O)O)C5)cc4)nc3)CC2)CC1 (some centres unmarked) [Compound 25]
5000 to 10000	C[C@@H](NC(=O)[C@H](Cc1ccc(-c2ncc(C3=CC(=O)CC(c4ccccc4)C3)cn2)cc1)NC(=O)c1ccc(C(C)(C)C)s1)C(=O)O (some centres unmarked) [Compound 49]
< 500	CCCC1CCC(C2CC=C(c3cnc(-c4ccc(C[C@H](NC(=O)c5ccc(C(C)(C)C)s5)C(=O)N[C@H](C)C(=O)O)cc4)nc3)CC2)CC1 (stereo partly drawn) [Compound 1, ((2S)-2-(5-(tert-butyl)thiophene-2-carboxamido)-3-(4-(5-(4′-propyl-[1,1′-bi(cyclohexan)]-3-en-4-yl)pyrimidin-2-yl)phenyl)propanoyl)-D-alanine]
< 500	CC[C@H]1CC[C@H](C2CC=C(c3cnc(-c4ccc(C[C@H](NC(=O)c5ccc(C6CC6)cc5)C(=O)N5CC(C(=O)O)C5)cc4)nc3)CC2)CC1 (some centres unmarked) [Compound 104]
5000 to 10000	CCCC1CCC(C2CCC(c3cnc(-c4ccc(C[C@H](NC(=O)c5ccc(C(C)(C)C)nc5)C(=O)N5CC(C(=O)O)C5)cc4)nc3)CC2)CC1 (some centres unmarked) [Compound 28]
500 to 2500	CCCCCC1CC=C(c2cnc(-c3ccc(C[C@H](NC(=O)c4ccc(C(C)(C)C)s4)C(=O)N[C@H](C)C(=O)O)cc3)nc2)CC1 (some centres unmarked) [Compound 53]
< 500	CC(C)(C)c1ccc(C(=O)N[C@@H](Cc2ccc(-c3ncc(C4=CCC([C@H]5CC[C@H](C)CC5)CC4)cn3)cc2)C(=O)N2CC(C(=O)O)C2)s1 (mixture of isomers) [Compound 44, 1-((S)-2-(5-(tert-butyl)thiophene-2-carboxamido)-3-(4-(5-((1RS,1′r,4′RS)-4′-methyl-[1,1′-bi(cyclohexan)]-3-en-4-yl)pyrimidin-2-yl)phenyl)propanoyl)azetidine-3-carboxylic acid]
2500 to 5000	CC1CC=C(c2cnc(-c3ccc(C[C@H](NC(=O)c4ccc(C(C)(C)C)s4)C(=O)N[C@H](C)C(=O)O)cc3)nc2)CC1 (some centres unmarked) [Compound 55]

EC50 [nM]	Compound
< 500	CC(C)(C)c1ccc(C(=O)N[C@@H](Cc2ccc(-c3ncc(C4=CCC([C@H]5CC[C@H](C)CC5)CC4)cn3)cc2)C(=O)N2CCC[C@H]2C(=O)O)s1 (some centres unmarked) [Compound 111]
< 500	CCCC1CCC(C2CC=C(c3cnc(-c4ccc(C[C@H](NC(=O)c5ccc(C(C)(C)C)s5)C(=O)N[C@H](C(=O)O)[C@@H](C)O)cc4)nc3)CC2)CC1 (some centres unmarked) [Compound 74]
< 500	CC(C)(C)c1ccc(C(=O)N[C@@H](Cc2ccc(-c3ncc(C4=CCC([C@H]5CC[C@H](C)CC5)CC4)cn3)cc2)C(=O)N2CC[C@H](C(=O)O)C2)s1 (some centres unmarked) [Compound 116]
5000 to 10000	CCCC1CCC(C2CCC(c3cnc(-c4ccc(C[C@H](NC(=O)c5cnn(C(C)(C)C)c5)C(=O)N5CC(C(=O)O)C5)cc4)nc3)CC2)CC1 (some centres unmarked) [Compound 18]
< 500	CCCCCC1CCC(C2CC=C(c3cnc(-c4ccc(C[C@H](NC(=O)c5ccc(C(C)(C)C)s5)C(=O)N5CC(C(=O)O)C5)cc4)nc3)CC2)CC1 (mixture of isomers) [Compound 4, 1-((2S)-2-(5-(tert-butyl)thiophene-2-carboxamido)-3-(4-(5-(4′-pentyl-[1,1′-bi(cyclohexan)]-3-en-4-yl)pyrimidin-2-yl)phenyl)propanoyl)azetidine-3-carboxylic acid]
< 500	CC(C)(C)c1ccc(C(=O)N[C@@H](Cc2ccc(-c3ncc(C4=CCC([C@H]5CC[C@H](C)CC5)CC4)cn3)cc2)C(=O)O)s1 (mixture of isomers) [Compound 123, (S)-2-(5-(tert-butyl)thiophene-2-carboxamido)-3-(4-(5-((1RS,1′r,4′RS)-4′-methyl-[1,1′-bi(cyclohexan)]-3-en-4-yl)pyrimidin-2-yl)phenyl)propanoic acid]
< 500	CC(C)(C)c1ccc(C(=O)N[C@@H](Cc2ccc(-c3ncc(C4=CCC(C(C)(C)C)CC4)cn3)cc2)C(=O)N2CC(C(=O)O)C2)s1 (some centres unmarked) [Compound 36]
< 500	CCCC1CCC(C2CC=C(c3cnc(-c4ccc(C[C@H](NC(=O)c5ccc(C(C)C)s5)C(=O)N5CC(C(=O)O)C5)cc4)nc3)CC2)CC1 (some centres unmarked) [Compound 17]
< 500	CC(=O)C1CC=C(c2cnc(-c3ccc(C[C@H](NC(=O)c4ccc(C(C)(C)C)s4)C(=O)N[C@H](C)C(=O)O)cc3)nc2)CC1 (some centres unmarked) [Compound 61]
500 to 2500	CCCCCC1CCC(C2CC=C(c3cnc(-c4ccc(C[C@H](NC(=O)c5ccc(C(C)(C)C)s5)C(=O)N5CCC[C@H]5C(=O)O)cc4)nc3)CC2)CC1 (some centres unmarked) [Compound 5]
500 to 2500	CC[C@H]1CC[C@H](C2CC=C(c3cnc(-c4ccc(C[C@H](NC(=O)c5ccc(CC(C)C)cc5)C(=O)N5CC(C(=O)O)C5)cc4)nc3)CC2)CC1 (some centres unmarked) [Compound 102]
500 to 2500	CCCCCC1CC=C(c2cnc(-c3ccc(C[C@H](NC(=O)c4ccc(C(C)(C)C)s4)C(=O)N4CC(C(=O)O)C4)cc3)nc2)CC1 (some centres unmarked) [Compound 38]
< 500	CC[C@H]1CC[C@H](C2CC=C(c3cnc(-c4ccc(C[C@H](NC(=O)c5ccc(C(C)(C)C)s5)C(=O)N[C@H](C)C(=O)O)cc4)nc3)CC2)CC1 (some centres unmarked) [Compound 106]
2500 to 5000	C[C@@H](NC(=O)[C@H](Cc1ccc(-c2ncc(C3=CCC(NC(=O)OC(C)(C)C)CC3)cn2)cc1)NC(=O)c1ccc(C(C)(C)C)s1)C(=O)O (some centres unmarked) [Compound 64]
< 500	C[C@@H](NC(=O)[C@H](Cc1ccc(-c2ncc(C3=CCC(C(C)(C)C)CC3)cn2)cc1)NC(=O)c1ccc(C(C)(C)C)s1)C(=O)O (some centres unmarked) [Compound 56]
< 500	C[C@@H](NC(=O)[C@H](Cc1ccc(-c2ncc(C3=CC(C)(C)CC(C)(C)C3)cn2)cc1)NC(=O)c1ccc(C(C)(C)C)s1)C(=O)O [Compound 59]
< 500	CCO[C@H]1CC[C@@H](C2CC=C(c3cnc(-c4ccc(C[C@H](NC(=O)c5ccc(C(C)(C)C)s5)C(=O)N5CC(C(=O)O)C5)cc4)nc3)CC2)CC1 (some centres unmarked) [Compound 83]
500 to 2500	C[C@@H](NC(=O)[C@H](Cc1ccc(-c2ncc(C3=CCC(C(F)(F)F)CC3)cn2)cc1)NC(=O)c1ccc(C(C)(C)C)s1)C(=O)O (some centres unmarked) [Compound 65]
< 500	CCC1CCC(C2CC=C(c3cnc(-c4ccc(C[C@H](NC(=O)c5ccc(C(C)(C)C)s5)C(=O)N[C@H](C)C(=O)O)cc4)nc3)CC2)CC1 (some centres unmarked) [Compound 70]
< 500	CCC[C@H]1CC[C@H](C2CC=C(c3cnc(-c4ccc(C[C@H](NC(=O)c5ccc(C6CC6)s5)C(=O)N5CC(C(=O)O)C5)cc4)nc3)CC2)CC1 (some centres unmarked) [Compound 117]
